Source: PubChem BioAssay (NCI)
“And” between values parts separate entries of the source, which are not always exact repeats. Equal entries are not always repeated.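 Method: 48-hour compound exposure of cells in 96-well plates, five concentrations, linear interpolation of endpoints. Here, GI50 denotes the concentration required for 50% inhibition of growth. TGI denotes the concentration required for complete inhibition of growth.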

Assays:
Assay in all cases: inhibition of tumour cell growth, NCI panel, 48 h
COLO 205 colon = tested on: COLO 205 colon
SK-OV-3 ovarian = tested on: SK-OV-3 ovarian
NCI-H460 lung = tested on: NCI-H460 lung
SF-295 CNS = tested on: SF-295 CNS
KM12 colon = tested on: KM12 colon
MCF7 breast = tested on: MCF7 breast
HT29 colon = tested on: HT29 colon
RPMI-8226 leukemia = tested on: RPMI-8226 leukemia
SR leukemia = tested on: SR leukemia
EKVX NSCLC = tested on: EKVX NSCLC
SNB-75 CNS = tested on: SNB-75 CNS
UACC-257 melanoma = tested on: UACC-257 melanoma
A549 NSCLC = tested on: A549 NSCLC
HOP-62 NSCLC = tested on: HOP-62 NSCLC
U251 CNS = tested on: U251 CNS
SNB-19 CNS = tested on: SNB-19 CNS
SF-268 CNS = tested on: SF-268 CNS
SF-539 CNS = tested on: SF-539 CNS
CCRF-CEM leukemia = tested on: CCRF-CEM leukemia
A498 renal = tested on: A498 renal
OVCAR-4 ovarian = tested on: OVCAR-4 ovarian
K-562 leukemia = tested on: K-562 leukemia
T-47D breast = tested on: T-47D breast
SK-MEL-2 melanoma = tested on: SK-MEL-2 melanoma
SK-MEL-28 melanoma = tested on: SK-MEL-28 melanoma
HS 578T breast = tested on: HS 578T breast
UO-31 renal = tested on: UO-31 renal
UACC-62 melanoma = tested on: UACC-62 melanoma
MALME-3M melanoma = tested on: MALME-3M melanoma

## CN(C)CCCN1c2ccccc2Sc2ccc(Cl)cc21
COLO 205 colon
  GI50: 1.89 µM and 2.85 µM
  TGI: 3.77 µM and 7.68 µM
SK-OV-3 ovarian
  GI50: 2.76 µM and 3.22 µM
  TGI: 7.62 µM and 9.3 µM
NCI-H460 lung
  GI50: 4.72 µM and 10.8 µM
  TGI: 17.1 µM and 23.8 µM
SF-295 CNS
  GI50: 4.13 µM and 8.91 µM
  TGI: 17.3 µM and 22.9 µM
KM12 colon
  GI50: 4.23 µM and 5.55 µM
  TGI: 14.8 µM and 17.6 µM
MCF7 breast
  GI50: 3.15 µM and 3.46 µM
  TGI: 12.6 µM and 13.7 µM
HT29 colon
  GI50: 3.26 µM and 3.96 µM
  TGI: 10.8 µM and 13.6 µM
RPMI-8226 leukemia
  GI50: 13.6 µM
  TGI: 32.6 µM
SR leukemia
  GI50: 3.01 µM and 3.94 µM
  TGI: 11 µM and 20.2 µM
EKVX NSCLC
  GI50: 12.7 µM and 11.8 µM
  TGI: 28.1 µM and 28 µM
SNB-75 CNS
  GI50: 4.63 µM and 6.09 µM
  TGI: 19.7 µM and 23 µM
UACC-257 melanoma
  GI50: 2.08 µM and 3.24 µM
  TGI: 4.33 µM and 13 µM
A549 NSCLC
  GI50: 3.31 µM and 3.37 µM
  TGI: 11.3 µM and 14.1 µM
HOP-62 NSCLC
  GI50: 14.6 µM and 11.7 µM
  TGI: 28.8 µM and 24.9 µM
U251 CNS
  GI50: 2.62 µM and 3.46 µM
  TGI: 7.9 µM and 14.4 µM
SNB-19 CNS
  GI50: 7.01 µM and 11.9 µM
  TGI: 20.9 µM and 25 µM
SF-268 CNS
  GI50: 8.89 µM and 5.25 µM
  TGI: 21.4 µM and 18.5 µM
SF-539 CNS
  GI50: 3.22 µM and 11.4 µM
  TGI: 7.79 µM and 26 µM
CCRF-CEM leukemia
  GI50: 7.38 µM
  TGI: 24.3 µM
A498 renal
  GI50: 10.5 µM and 3.46 µM
  TGI: 23.7 µM and 16.6 µM
OVCAR-4 ovarian
  GI50: 7.84 µM and 9.23 µM
  TGI: 20.7 µM and 22.5 µM
K-562 leukemia
  GI50: 3.16 µM
  TGI: 11.3 µM
T-47D breast
  GI50: 5.92 µM and 8.6 µM
  TGI: 20 µM and 23.4 µM
SK-MEL-2 melanoma
  GI50: 3.81 µM and 5.52 µM
  TGI: 13.4 µM and 19.5 µM
SK-MEL-28 melanoma
  GI50: 2.03 µM and 3.65 µM
  TGI: 4.69 µM and 14.4 µM
HS 578T breast
  GI50: 4.32 µM and 3.77 µM
  TGI: 24.4 µM and 21 µM
UO-31 renal
  GI50: 2.89 µM and 3.46 µM
  TGI: 13.7 µM and 17.2 µM
UACC-62 melanoma
  GI50: 1.94 µM and 2.07 µM
  TGI: 4.01 µM and 5.11 µM
MALME-3M melanoma
  GI50: 14.9 µM and 3.04 µM
  TGI: 31.5 µM and 15.8 µM
